Assay results reported in patent US20020143062A1, “Method to incorporate N-(4-hydroxyphenyl) retinamide in liposomes” (Board of Regents, The University of Texas System, priority 2000, published 2002).
Counter-ions that a name gives are not always drawn. Like-named read-outs stand apart in the source and are kept apart here. Starred links: 1 amine or outer side, 2 acyl side, 3 side chain; linkers in the order of their positions; H or OH if unused. Positions of bridges follow the written chain, without caps; N, C: chain ends. Non-standard residues stand in square brackets, D forms with d. Residues, ends and D or L forms follow the SMILES beside them. Chains are numbered I, II in the order given. Actinocin(9to1) = Cc1c2oc3c(C)ccc(C(=O)[*:1])c3nc-2c(C(=O)[*:2])c(N)c1=O; NMeV = CN[C@H](C(=O)O)C(C)C; Sar = CNCC(=O)O

What was measured:
[1] = cited from earlier work
[2] = test system: ER-positive MCF-7 cells; assay: NO production, nitrite assay (Tables 5 and 7); assay type: cell-based; settings: for increase of iNOS production of NO in the presence of cyclosporin A: both ER positive and ER negative breast cancer cells (Tables 7, 8)
Source text: (§1) Nitric oxide (NO), an important biological second messenger, is known to induce growth inhibition and apoptosis in cells. Nitric oxide (NO) is biosynthesized by isoenzymes called nitric oxide synthases. One such isoenzyme, inducible NOS (iNOS), is present only after cytokine induction, such as interferon-γ (IFN-γ). […] Here, the ability of liposomal 4-HPR and IFN-γ to induce NO production and growth inhibition in breast cancer positive (Table 5) and breast cancer negative (Table 6) cells is examined by nitrite assays and growth inhibition assays, as known to the skilled artisan.
(§2) It is also known to those skilled in the art that nitric oxide (NO) is a biologic mediator derived from the amino acid L-arginine. A family of enzymes, known as nitric oxide synthase (NOS), act upon L-arginine to oxidize one of the guanidino nitrogens to nitric oxide while citrulline is formed from the remainder of the L-arginine molecule.
(§3) Liposomal 4-HPR in combination with cyclosporin A, increased iNOS production of NO in breast cancer cells (Table 3-5). […] Furthermore, an increase in the production of NO in these cells was not indicated with other retinoids such as CD437 and ATRA.

[3] = test system: ER-negative MDA-MB-231 cells; assay: NO production, nitrite (Table 8); assay type: cell-based; settings: cyclosporin A 4 μg/ml; CD437 2 μM; ATRA 1 μM; alone or combined as labelled; 3 days
Source text: as §3

[4] = test system: MCF-7/WT; assay: Cellular proliferation assay, IC50 of retinoids with/without cyclosporin A; assay type: cell-based
[5] = test system: ER-positive MCF-7 cells; assay: Growth inhibition, cell count (Table 5); assay type: cell-based; settings: alone or with 4HPR 1 μM as labelled, 5 days
Source text: as §1

[6] = test system: ER-positive MCF-7 cells; assay: NO production, nitrite assay (Table 6); assay type: cell-based; settings: alone or with 4HPR 1 μM as labelled, 5 days
Source text: as §1, §2

[7] = test system: ER-positive MCF-7 cells; assay: Growth inhibition, cell count (Table 6); assay type: cell-based; settings: alone or with 4HPR 1 μM as labelled, 5 days
Source text: Nitric oxide (NO), an important biological second messenger, is known to induce growth inhibition and apoptosis in cells. Nitric oxide (NO) is biosynthesized by isoenzymes called nitric oxide synthases. […]

[8] = cited from earlier work; remark: listed apart in the source
[9] = cited from earlier work; remark: listed apart in the source
[10] = test system: MCF-7/ADR; assay: Cellular proliferation assay, IC50 of retinoids with/without cyclosporin A; assay type: cell-based
[11] = cyclosporin A 4 μg/ml, CD437 2 μM, ATRA 1 μM, alone or combined as labelled, 3 days
[12] = single oral doses of about 0.6 mg/kg to about […]
[13] = without cyclosporin A, read-out: IC50 Without CsA

In the case of `Cc1c2oc3c(C)ccc(C(=O)N[C@@H]4C(=O)N[C@H](C(C)C)C(=O)N5CCC[C@H]5C(=O)N(C)CC(=O)N(C)[C@@H](C(C)C)C(=O)O[C@@H]4C)c3nc-2c(C(=O)N[C@@H]2C(=O)N[C@H](C(C)C)C(=O)N3CCC[C@H]3C(=O)N(C)CC(=O)N(C)[C@@H](C(C)C)C(=O)O[C@@H]2C)c(N)c1=O` [Actinomycin D] (I: T[dV]P[Sar][NMeV] / II: T[dV]P[Sar][NMeV]; ester I:1-I:C, II:1-II:C; linker I:N-II:N via Actinocin(9to1)), the “dose excreted intact into the bile” value ([1]; in vivo) is listed as “Half of the dose”, the “dose excreted intact into the urine” value ([1]; in vivo) is listed as 10% and the half-life ([1]; in vivo) is listed as “about 36 hours”. For the same molecule, the “passage of the blood-brain barrier” value ([1]; in vivo) was “does not pass the blood-brain barrier”.

For `COc1cccc2c1C(=O)c1c(O)c3c(c(O)c1C2=O)C[C@@](O)(C(C)=O)C[C@@H]3O[C@H]1C[C@H](N)[C@H](O)[C@H](C)O1` [Daunorubicin, 5,12-Naphthacenedione, (8S-cis)-8-acetyl-10-[(3-amino-2,3,6-trideoxy-a-L-lyxo-hexanopyranosyl)oxy]-7,8,9,10-tetrahydro-6,8,11-trihydroxy-10-methoxy-, hydrochloride], the “oral / gastrointestinal absorption” value ([1]; in vivo) is listed as “Oral absorption is poor”, the elimination half-life ([1]; in vivo) is listed as “about 19 hours” and the “secreted into the bile” value ([1]; in vivo) is listed as “about 40%”.

With `CC1=C(/C=C/C(C)=C/C=C/C(C)=C/C(=O)O)C(C)(C)CCC1` [ATRA, all-trans-retinoic acid] the “increase of iNOS production of NO in the presence of cyclosporin A” value [2] was “not indicated”, the “Nitrite (NO production)” value [2, 11] was 15.1 μM Nitrite /1 × 10^6 cells and the “Nitrite (NO production)” value [3] was 7.1 μM Nitrite /1 × 10^6 cells. It also gave an IC50 ([4]; Homo sapiens, MCF7, cotreatment with CsA, concentration not marked, read-out: IC50 With CsA) of 287 nM and an IC50 ([4]; Homo sapiens, MCF7, without cyclosporin A, read-out: IC50 Without CsA) of 288 nM.

For `COc1cccc2c1C(=O)c1c(O)c3c(c(O)c1C2=O)C[C@@](O)(C(=O)CO)C[C@@H]3O[C@H]1C[C@H](N)[C@H](O)[C@H](C)O1` [Doxorubicin, 5,12-Naphthacenedione, (8s-cis)-10-[(3-amino-2,3,6-trideoxy-a-L-lyxo-hexopyranosyl)oxy]-7,8,9,1 0-tetrahydro-6,8,11-trihydroxy-8-(hydroxyacetyl)-1-methoxy-hydrochloride], the “oral / gastrointestinal absorption” value ([1]; in vivo) is listed as “absorbed poorly” and the elimination half-life ([1]; in vivo) is listed as “about 30 hours”.

For `O=C(O)CCCc1ccc(N(CCCl)CCCl)cc1` [Chlorambucil, 4-[bis(2-chlorethyl)amino] benzenebutanoic acid], the “oral / gastrointestinal absorption” value ([1]; in vivo) is listed as “rapidly and completely absorbed”, the “terminal half-life of the parent drug” value [1, 12] is listed as “about 1.5 hours” and the “time to peak plasma chlorambucil levels” value [1, 12] is listed as “within one hour”.

For `N.N.[Cl][Pt][Cl]` [Cisplatin], the “oral / gastrointestinal absorption” value ([1]; in vivo) is given as “not absorbed orally”.

In the case of `CC[C@]1(O)C[C@@H]2CN(CCc3c([nH]c4ccccc34)[C@@](C(=O)OC)(c3cc4c(cc3OC)N(C)[C@H]3[C@@](O)(C(=O)OC)[C@H](OC(C)=O)[C@]5(CC)C=CCN6CC[C@]43[C@@H]65)C2)C1` [vinblastine], the “administered dose recovered in the feces after biliary excretion” value ([1]; in vivo) is given as “about 10%”, the “half-life of disappearance from plasma after distribution (first)” value ([1]; intravenous injection) is given as “approximately 1 hours” and the “half-life of disappearance from plasma after distribution (second)” value ([1]; intravenous injection) is given as about 72000 s.

For “IFN-γ: Interferon gamma, cytokine that induces iNOS”, the “Nitrite (NO production)” value ([2]; IFN-γ 25 U/ml, alone or with 4HPR 1 μM as labelled, 5 days) was 7.1 ± 3.3 μM Nitrite /1 × 10^6 cells, the “Nitrite (NO production)” value ([2]; IFN-γ 50 U/ml, alone or with 4HPR 1 μM as labelled, 5 days) was 6.6 ± 0.5 μM Nitrite /1 × 10^6 cells and the Cell count ([5]; IFN-γ 25 U/ml) was 254 × 10^4. The Cell count ([5]; IFN-γ 50 U/ml) was 258 × 10^4, the “Nitrite (NO production)” value ([6]; IFN-γ 25 U/ml) was 28.3 ± 4.1 μM Nitrite /1 × 10^6 cells and the “Nitrite (NO production)” value ([6]; IFN-γ 50 U/ml) was 24.4 ± 0.4 μM Nitrite /1 × 10^6 cells. The Cell count ([7]; IFN-γ 25 U/ml) was 51 × 10^4 and the Cell count ([7]; IFN-γ 50 U/ml) was 52 × 10^4.

For `CO[C@@]12[C@H](COC(N)=O)C3=C(C(=O)C(C)=C(N)C3=O)N1C[C@@H]1N[C@@H]12` [Mitomycin], the “time required to reduce the serum concentration by about 50%” value ([8]; 30 mg bolus injection) is given as 17 min and the “dose excreted unchanged in the urine” value ([8]; in vivo) is given as “Approximately 10%”.

For `N[C@@H](Cc1ccc(N(CCCl)CCCl)cc1)C(=O)O` [Melphalan, 4-[bis(2-chloroethyl)amino]-L-phenylalanine], the “proportion of patients with a favorable response” value ([9]; multiple myeloma, oral administration) is given as “about one third to one half”.

In the case of `COc1cccc2c1C(=O)c1c(O)c3c(c(O)c1C2=O)C[C@@](O)([C@H](C)O)C[C@@H]3O[C@H]1C[C@H](N)[C@H](O)[C@H](C)O1` [daunorubicinol], the “half-life of active metabolite” value ([1]; in vivo) is listed as “about 27 hours”.

For `CC[C@]1(O)C[C@H]2CN(CCc3c([nH]c4ccccc34)[C@@](C(=O)OC)(c3cc4c(cc3OC)N(C=O)[C@H]3[C@@](O)(C(=O)OC)[C@H](OC(C)=O)[C@]5(CC)C=CCN6CC[C@]43[C@@H]65)C2)C1` [vincristine], the “terminal half-life (clearance from plasma)” value ([1]; in vivo) is given as “about 24 hours”.

In the case of `O=C(O)c1ccc2cc(-c3ccc(O)c(C45CC6CC(CC(C6)C4)C5)c3)ccc2c1` [CD437], the “increase of iNOS production of NO in the presence of cyclosporin A” value [2] is reported as “not indicated”, the “Nitrite (NO production)” value [2, 11] is reported as 71.8 μM Nitrite /1 × 10^6 cells and the “Nitrite (NO production)” value [3] is reported as 59.3 μM Nitrite /1 × 10^6 cells. For the same molecule, the IC50 ([4]; cotreatment with CsA, concentration not marked, read-out: IC50 With CsA) was 358 nM, the IC50 [4, 13] was 287 nM and the IC50 ([10]; cotreatment with CsA 2 μg/ml, read-out: IC50 With CsA) was 197000 nM. It also gave an IC50 ([10]; cotreatment with CsA 4 μg/ml, read-out: IC50 With CsA) of 1190 nM and an IC50 [10, 13] of 1580 nM.

In the case of `CS(=O)(=O)OCCCCOS(C)(=O)=O` [Busulfan, 1,4-butanediol dimethanesulfonate], the “adults obtaining hematologic remission with regression or stabilization of organomegaly” value ([9]; previously untreated chronic myelogenous leukemia) is given as “Approximately 90%”.

In the case of `O=NN(CCCl)C(=O)NC1CCCCC1` [Lomustine, 1-(2-chloro-ethyl)-3-cyclohexyl-l nitrosourea], the “radioactivity excreted in the form of degradation products within 24 hours” value ([1]; oral radioactive lomustine, about 30 mg/m^2 to 100 mg/m^2) is given as “about half” and the “serum half-life of the metabolites” value ([1]; oral radioactive lomustine) is given as “about 16 hours to about 2 days”.
